Assay results: PMC6934184, “Selective DNA-PKcs inhibition extends the therapeutic index of localized radiotherapy and chemotherapy” (The Journal of Clinical Investigation, 2019)

Target: T1, BMPR1B (ALK6) (Homo sapiens, UniProt O00238)
T1 construct: purchased Thermo Fisher Scientific (Life Technologies) SelectScreen
Test: SelectScreen LanthaScreen
Assay type: binding
Conditions: read-out: % displacement
Method in brief: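 Percent values come from Thermo SelectScreen profiling of NU5455, combining activity and binding assays. CSF1R was run in Z'LYTE format at Km app ATP, and CAMK1 in Adapta format with ATP listed at 10.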

T1 sequence (O00238 14-502): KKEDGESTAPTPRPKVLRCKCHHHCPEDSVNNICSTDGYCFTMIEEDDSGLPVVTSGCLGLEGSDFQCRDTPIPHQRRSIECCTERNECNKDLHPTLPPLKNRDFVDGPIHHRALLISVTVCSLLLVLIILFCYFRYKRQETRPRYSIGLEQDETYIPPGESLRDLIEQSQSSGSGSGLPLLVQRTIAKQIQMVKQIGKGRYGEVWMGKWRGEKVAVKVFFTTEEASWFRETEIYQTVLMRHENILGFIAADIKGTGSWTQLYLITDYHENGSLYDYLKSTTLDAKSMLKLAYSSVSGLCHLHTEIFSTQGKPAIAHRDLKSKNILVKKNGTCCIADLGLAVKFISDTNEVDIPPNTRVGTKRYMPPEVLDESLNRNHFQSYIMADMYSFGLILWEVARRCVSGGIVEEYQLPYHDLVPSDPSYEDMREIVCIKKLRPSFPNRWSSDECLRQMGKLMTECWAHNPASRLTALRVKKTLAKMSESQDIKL

SMILES: CN(C(=O)CN1CCOCC1)c1ccc2sc3c(-c4cccc5c(=O)cc(N6CC7CCC(C6)O7)oc45)cccc3c2c1 [NU5455]
- inhibition at 1 µM: 14.5%
